From patent publication US7569605B2, “Methods of treating central nervous system disorders with a low dose combination of escitalopram and bupropion” (Forest Laboratories Holdings Limited, priority 2005, dated 2009) come the findings set out here.

Data set [1] relates to rat dorsal raphe nucleus (DRN) 5-HT neurons. Kind of data set: effects on rat dorsal raphe nucleus serotonin neurons (extracellular unitary recordings of firing). The data set is classed as in vivo. As to conditions: anesthetized rats; two days treatment; escitalopram 10 mg/kg s.c. minipump, bupropion 30 mg/kg s.c. once daily. Here is the method:
Glass electrodes were lowered into the DRN 5-HT neurons were identified by their firing pattern and spike duration. […] NS). […] The experiments were carried out in male Sprague Dawley rats (Charles River, St. Constant, Québec, Canada) weighing between 300 to 325 g being kept under standard laboratory conditions (12:12 light-dark cycle with access to food and water ad libitum). Rats were anaesthetized with chloral hydrate (400 mg/kg, i.p.) and mounted in a stereotaxic apparatus (David Kopf Instruments, Tujunga, Calif., USA). […] Body temperature was maintained at 37° C. throughout the experiments utilizing a thermistor-controlled heating pad (Seabrook Medical Instruments, Inc., […], Canada). Prior to electrophysiological recording, rats were inserted with a catheter in a lateral tail vein for systemic injection of drugs. Rats received escitalopram oxalate administered through an osmotic minipump implanted subcutaneously, under halothane anaesthesia, which delivered 10 mg/kg/day. The recordings were carried out with the minipump in the animals. Bupropion hydrochloride was injected subcutaneously once a day at a dose of 30 mg/kg for 2 days with the last dose administered immediately prior to the electrophysiological experiments. […] Their impedance range was between 2 and 4 MΩ. […] Serotonin neurons were recorded with micropipettes lowered at +1.0 mm interaural on midline. […]

The subject of data set [2] is patients with major depressive disorder (MDD). Kind of data set: double-blind fixed dose comparison in major depressive disorder: efficacy (MADRS, HAMD, CGI, HAMA, QOL). As to conditions: escitalopram 4 mg, bupropion XL 150 mg, 8 weeks; for CGI % response: CGI-I response = 1 or 2; for HAMD17 % remission: HAMD17 remission <=7; for HAMD24 % response: HAMD24 response >=50% improvement; for MADRS % remission: MADRS remission <=12; for MADRS % response: MADRS response >=50% improvement; for CGI-I: LS mean (LOCF) / CGI-S: LS mean change from baseline to endpoint (LOCF) / HAMA: LS mean change from baseline to endpoint (LOCF) / HAMD17: LS mean change from baseline to endpoint (LOCF) / HAMD24 2° parameter, validated: LS mean change from baseline to endpoint (LOCF) / HAMD cognit disturb: LS mean change from baseline to endpoint (LOCF) / HAMD psychomotor: LS mean change from baseline to endpoint (LOCF) / MADRS 1° parameter, validated: LS mean change from baseline to endpoint (LOCF) / QOL: LS mean change from baseline to endpoint (LOCF): vs placebo. Format: in vivo, human. More on the design: key to QOL: LS mean change from baseline to endpoint (LOCF): aggregated 5-point item scores; higher = greater enjoyment/satisfaction; HAMD17: LS mean change from baseline to endpoint (LOCF): scale not given here. Here is the method:
This clinical study is conducted as a double-blind, randomized, fixed-dose, multicenter, parallel-group study in outpatients as shown in the Figure below: […] Approximately 135 patients are randomized to each of four treatment groups (placebo, escitalopram oxalate 4 mg, bupropion hydrochloride 150 mg, or escitalopram oxalate 4 mg/bupropion hydrochloride 150 mg), for a total of […]. A randomized, double-blind, fixed-dose, multicenter, parallel-group study is conducted in outpatients with MDD. […] Assignment to a treatment group is according to a computer-generated randomization schedule. […] The following primary efficacy assessments are performed at patient visits: […] The following secondary efficacy assessments are performed at patient visits: […] The following additional efficacy assessments are performed at patient visits: […] This scale rates the severity of the patient's current state of mental illness based on the investigator's clinical opinion with regard to a patient population with MDD. The patient is rated on a scale of 1 to 7 with 1 being normal and 7 being a patient who was among the most extremely ill. […] Based on the investigator's clinical opinion, this scale rates the total improvement or worsening in the patient's mental illness from his/her baseline assessment, regardless of whether or not the investigator considered it due to drug treatment. The patient is rated on a scale from 1 to 7 with 1 being very much improved and 7 being very much worse. […] Each item is scored on a 5 point scale with 0 reflecting no symptoms and 4 reflecting symptoms of maximum severity. […] Five-point item scores are aggregated, with higher scores indicative of greater enjoyment or satisfaction in each domain. Dosing: For the single-blind lead-in period, patients are supplied with placebo capsules. For the double-blind period, identical appearing capsules are supplied which contain placebo, escitalopram 4 mg, or bupropion extended-release 150 mg. […] All study medication is administered as a single daily dose throughout the study, preferably at the same time each evening starting on the day the medication is dispensed to the patient. Dosing is subsequently be switched to morning, if preferred. […] Patients are instructed to return all unused medication at each study visit. […] Patients are instructed to take two capsules daily as a single dose beginning on the day study medication is dispensed. […] Patients are assigned the lowest randomization number available at the site. Patients are instructed to take two capsules daily as a single dose beginning on the day study medication is dispensed. In accordance with their assigned treatment group, patients receive placebo, 4 mg escitalopram, 150 mg bupropion, or 4 mg escitalopram and 150 mg bupropion per day. […] Patients are instructed to continue taking two capsules daily as a single dose. In accordance with their assigned treatment group, patients receive placebo, 4 mg escitalopram, 150 bupropion, or 4 mg escitalopram and 150 mg bupropion per day. Efficacy: All efficacy analyses are based on the Intent-to-Treat (ITT) Population. […] All efficacy analyses are performed using both the Last Observation Carried Forward (LOCF) and the Observed Cases (OC) approach. In these analyses, the last observed value before a post-baseline missing value are carried forward to impute the missing value. […] For OC analyses, only observed values are used. […] The primary analysis is performed using the LOCF approach. Three primary comparisons between the escitalopram/bupropion combination group relative to each of the three other groups (placebo, escitalopram, or bupropion) are performed using an ANCOVA model with the treatment group and center as factors and the baseline MADRS score as a covariate. […] The analyses are carried out using a similar statistical model as used for the primary efficacy parameter. […]

Data set [3] shares this test system. Kind of data set: Arizona Sexual Experiences Scale (ASEX) in the fixed dose comparison study. The data set is classed as in vivo, human. Here is the method: The study consists of a one-week single-blind placebo lead-in period followed by an 8 week double-blind treatment period. Approximately 135 patients are randomized to each of four treatment groups (placebo, escitalopram oxalate 4 mg, bupropion hydrochloride 150 mg, or escitalopram oxalate 4 mg/bupropion hydrochloride 150 mg), for a total of […].
A randomized, double-blind, fixed-dose, multicenter, parallel-group study is conducted in outpatients with MDD. Patients who meet eligibility criteria at Screening (Visit 1) enter a one-week, single-blind, lead-in period of placebo treatment. Patients who complete the lead-in period and continue to meet all entry criteria at Baseline (Visit 2) are randomly assigned to 8 weeks of double-blind treatment with either placebo, escitalopram 4 mg, bupropion XL 150 mg, or escitalopram 4 mg/bupropion XL 150 mg combination. Assignment to a treatment group is according to a computer-generated randomization schedule.
The Arizona Sexual Experiences Scale (ASEX) is completed at Visits 2 and 7, or early termination. Different versions are used for males and females. This 5 item patient-rated scale assesses sexual experiences with respect to libido, psychological and physiological arousal, ability to attain orgasm, and satisfaction with orgasm. Each item is scored on a 6 point scale with higher numbers indicating greater sexual dysfunction.

Values joined by “and” are separate entries in the source; they are usually repeats but may differ in a detail not shown here. Equal values may be shown once. Marks after values point to notes of the source that are not given here.

For the molecule `CC(NC(C)(C)C)C(=O)c1cccc(Cl)c1` (racemic) [bupropion, (±)-1-(3-chlorophenyl)-2-[(1,1-dimethylethyl)amino]-1-propanone], the “spontaneous firing of DRN 5-HT neurons” value in data set [1] amounted to 1.54 Hz. For the same molecule, in data set [2], the CGI % response was 46.6% and 46.62%; the HAMD17 % remission is 29.3% and 29.32%; the HAMD24 % response is 42.9% and 42.86%; the MADRS % remission is 37.6% and 37.59%. Besides, in data set [2], the MADRS % response was 43.6% and 43.61%; the “CGI-I: LS mean (LOCF)” value is −0.11; the “CGI-S: LS mean change from baseline to endpoint (LOCF)” value is −0.27; the “HAMA: LS mean change from baseline to endpoint (LOCF)” value is reported as −1.31. Further, in data set [2], the “HAMD17: LS mean change from baseline to endpoint (LOCF)” value is recorded as −0.75; the “HAMD24 2° parameter, validated: LS mean change from baseline to endpoint (LOCF)” value is on record as −1.10; the “HAMD cognit disturb: LS mean change from baseline to endpoint (LOCF)” value is on record as −0.21; the “HAMD psychomotor: LS mean change from baseline to endpoint (LOCF)” value is given as −0.33. In data set [2], the “MADRS 1° parameter, validated: LS mean change from baseline to endpoint (LOCF)” value was −1.08 and the “QOL: LS mean change from baseline to endpoint (LOCF)” value worked out at 1.97. Also, the “ASEX Change in total scores (improvement = reduction in score)” value in data set [3] (Females) is −1.6571. The “ASEX Change in total scores (improvement = reduction in score)” value in data set [3] (Males) is listed as −1.4222.

As for `CN(C)CCC[C@@]1(c2ccc(F)cc2)OCc2cc(C#N)ccc21` [escitalopram, 1-[3-(dimethyl-amino)propyl]-1-(p-fluorophenyl)-5-phthalancarbonitrile], the “spontaneous firing of DRN 5-HT neurons” value in data set [1] is given as 0.35 Hz. In data set [2], the CGI % response was 56.5% and 56.49* %; the HAMD17 % remission was 29.8% and 29.77%; the HAMD24 % response was 46.6% and 46.56* %; the MADRS % remission was 35.9% and 35.88%. In data set [2], the MADRS % response is 47.3% and 47.33* %; the “CGI-I: LS mean (LOCF)” value is recorded as 0.33*; the “CGI-S: LS mean change from baseline to endpoint (LOCF)” value is on record as −0.32*; the “HAMA: LS mean change from baseline to endpoint (LOCF)” value is listed as −1.91*. In addition, in data set [2], the “HAMD17: LS mean change from baseline to endpoint (LOCF)” value is −0.75; the “HAMD24 2° parameter, validated: LS mean change from baseline to endpoint (LOCF)” value is on record as −1.15; the “HAMD cognit disturb: LS mean change from baseline to endpoint (LOCF)” value is given as −0.29; the “HAMD psychomotor: LS mean change from baseline to endpoint (LOCF)” value is on record as −0.16. Further, in data set [2], the “MADRS 1° parameter, validated: LS mean change from baseline to endpoint (LOCF)” value is listed as −2.51* and the “QOL: LS mean change from baseline to endpoint (LOCF)” value stood at 2.25. For the same molecule, in data set [3] (Females), the “ASEX Change in total scores (improvement = reduction in score)” value was −1.0000. Further, the “ASEX Change in total scores (improvement = reduction in score)” value in data set [3] (Males) is listed as “+0.1667”.
